From US20230381210A1, “COMPOSITION FOR PREVENTION, AMELIORATION, OR TREATMENT OF HYPERSENSITIVITY IMMUNE DISEASE CONTAINING GALACTOSE” (Quorum Bio Co., Ltd., priority 2020, published 2023)

Assays:
Assay type in all cases: in vivo, BALB/c mice
[1] = tested on: DNCB-induced atopic dermatitis mouse model; test: Visual confirmation of skin lesions in DNCB-induced atopic dermatitis mouse model; conditions: oral 100 or 200 mg/kg daily (G5, G6) vs negative control (G3, PBS); FIG. 2, n=2 per group
Method: (§1) An animal experiment in the following example was performed in accordance with the regulations set forth by Chonnam National University IACUC in an environment maintained at 50±5% humidity and 24˜26° C. temperature. 7-week-old male BALB/c mice (Damool Science Co., Ltd.) bred as a test animal were used, and after being acclimatized in a laboratory environment for one week while supplying enough feed and water, they were used in the experiment. Non-allergenic, dust-free, non-toxic, absorbent and pathogen-free bedding was used, and the cage was changed once a week to maintain a clean environment, and water was freely supplied with a water bottle. Galactose was pre-administered for 2 weeks from the period when the prepared mice were 8-week-old. Pre-administration was performed by oral administration once a day for 2 weeks, and the dose of galactose was 100 mg/kg or 200 mg/kg, respectively. As a control group, mice administered (orally) with PBS for the same period were prepared. After 2 weeks of pre-administration, the hairs on the mouse head and back of the mice were removed using a clipper and depilatory cream. […] On the day 16 after the first DNCB application (just before necropsy), ear thickness and clinical symptoms of the mice were measured. […]

[2] = tested on: DNCB-induced atopic dermatitis mouse model; test: Ear thickness measurement in DNCB-induced atopic dermatitis mouse model; conditions: oral 100 or 200 mg/kg daily (G5, G6); FIG. 3
Method: as §1, with “respectively.” for “respectively. As a control group, mice administered (orally) with PBS for the same period were prepared. After 2 weeks of pre-administration, the hairs on the mouse head and back of the mice were removed using a clipper and depilatory cream.”, “measured. The mice prepared in Reference example 1 were evaluated for clinical symptoms (rubefaction, keratin formation (dryness degree), crust formation), and ear thickness was measured and then recorded three times a week (Monday, Wednesday, Friday). Ear thickness was measured three times a week using Caliper (R12-1A, Ozaki, Tokyo, Japan).” for “measured.”

[3] = tested on: DNCB-induced atopic dermatitis mouse model; test: Clinical scoring (rubefaction, keratin formation, crust formation) in DNCB-induced atopic dermatitis mouse model; conditions: oral 100 or 200 mg/kg daily (G5, G6) vs negative control (G3); FIG. 4
Method: An animal experiment in the following example was performed in accordance with the regulations set forth by Chonnam National University IACUC in an environment maintained at 50±5% humidity and 24˜26° C. temperature. 7-week-old male BALB/c mice (Damool Science Co., Ltd.) bred as a test animal were used, and after being acclimatized in a laboratory environment for one week while supplying enough feed and water, they were used in the experiment. Non-allergenic, dust-free, non-toxic, absorbent and pathogen-free bedding was used, and the cage was changed once a week to maintain a clean environment, and water was freely supplied with a water bottle. […] On the day 16 after the first DNCB application (just before necropsy), ear thickness and clinical symptoms of the mice were measured. The mice prepared in Reference example 1 were evaluated for clinical symptoms (rubefaction, keratin formation (dryness degree), crust formation), and ear thickness was measured and then recorded three times a week (Monday, Wednesday, Friday). Ear thickness was measured three times a week using Caliper (R12-1A, Ozaki, Tokyo, Japan). […] For the mice prepared in Reference example 1, the clinical symptoms of the three items (rubefaction, keratin formation (dryness), crust formation) were scored on the basis of the following: 0 point; none, 1 point; mild, 2 points; moderate, 3 points; severe.

[4] = tested on: DNCB-induced atopic dermatitis mouse model; test: Spleen and lymph node weight in DNCB-induced atopic dermatitis mouse model; conditions: oral 100 or 200 mg/kg daily (G5, G6) vs negative control (G3)
Method: An animal experiment in the following example was performed in accordance with the regulations set forth by Chonnam National University IACUC in an environment maintained at 50±5% humidity and 24˜26° C. temperature. 7-week-old male BALB/c mice (Damool Science Co., Ltd.) bred as a test animal were used, and after being acclimatized in a laboratory environment for one week while supplying enough feed and water, they were used in the experiment. Non-allergenic, dust-free, non-toxic, absorbent and pathogen-free bedding was used, and the cage was changed once a week to maintain a clean environment, and water was freely supplied with a water bottle. Galactose was pre-administered for 2 weeks from the period when the prepared mice were 8-week-old. Pre-administration was performed by oral administration once a day for 2 weeks, and the dose of galactose was 100 mg/kg or 200 mg/kg, respectively. As a control group, mice administered (orally) with PBS for the same period were prepared. […] On the day 16 after the first DNCB application (just before necropsy), ear thickness and clinical symptoms of the mice were measured. […] In the present example, by measuring the weight of the spleen and armpit lymph nodes right before autopsy of the mice prepared in Reference example 1, a protective effect of atopic dermatitis was indirectly evaluated.

[5] = tested on: DNCB-induced atopic dermatitis mouse model; test: Total IgE in serum by ELISA in DNCB-induced atopic dermatitis mouse model; conditions: oral 200 mg/kg daily (G6) vs negative control (G3); day 16; FIG. 7
Method: An animal experiment in the following example was performed in accordance with the regulations set forth by Chonnam National University IACUC in an environment maintained at 50±5% humidity and 24˜26° C. temperature. 7-week-old male BALB/c mice (Damool Science Co., Ltd.) bred as a test animal were used, and after being acclimatized in a laboratory environment for one week while supplying enough feed and water, they were used in the experiment. Non-allergenic, dust-free, non-toxic, absorbent and pathogen-free bedding was used, and the cage was changed once a week to maintain a clean environment, and water was freely supplied with a water bottle. […] On the day 16 after the first DNCB application (just before necropsy), ear thickness and clinical symptoms of the mice were measured. At autopsy (16 days after first DNCB application), whole blood was collected, and then serum was separated and the IgE level in serum was measured by ELISA. As total IgE in serum was increased, when DNCB was treated to skin in the DNCB-induced atopic dermatitis mouse model, in the present example, by collecting blood right before autopsy of the mice prepared in Reference example 1 and then isolating serum and evaluating the total amount of IgE (ug/ml) in serum through ELISA method, a protective effect of atopic dermatitis was indirectly evaluated.

For `O=C[C@H](O)[C@@H](O)[C@@H](O)[C@H](O)CO` [galactose], the “degree of crust formation” value [1] was “reduced”, the “degree of skin rubefaction” value [1] was “suppressed” and the ear thickness [2] was “significantly reduced”. The “score of clinical symptoms (sum of rubefaction, keratin formation, crust formation scores)” value [3] was “significantly reduced”, the weight of spleen ([4]; FIG. 5) was “generally reduced” and the “weight of lymph nodes (armpit)” value ([4]; FIG. 6) was “generally reduced”. For the same compound, the “total amount of IgE in serum” value [5] was “significantly reduced”.
